{"source": "patent US20260256741A1", "about": "“ANTICANCER MALEIMIDE DERIVATIVES FOR USE WITH IMMUNE CHECKPOINT BLOCKADE” (BROWN UNIVERSITY, priority 2022, published 2026)", "assay_type_in_all_cases": "cell-based, human", "key": {"HCT-116 CRC cells": {"tested_on": "HCT-116 CRC cells", "assay": "Western blot analysis of HCT-116 CRC cells", "description": "Recombinant Human TNF-α (Cat #300-01A, PeproTech, Rocky Hill, NJ, USA) and Recombinant Human IFN-γ (Cat #300-02, Peprotech, Rocky Hill, NJ, USA) were purchased for use in western blot analysis while rhTRAIL was generated in-house. Kim et al., J Biol Chem., 279(38):40044-52 (2004).\n(§1) Cells were plated in a 6-well plate and incubated overnight before the spent media was replaced with drugged media. Drug treatment lasted for indicated durations. Protein was extracted using radioimmunoprecipitation (RIPA) assay buffer (Cat #R0278, Sigma-Aldrich, St. Louis, MO) containing cOmplete™, Mini, EDTA-free Protease Inhibitor Cocktail (Cat #4693159001, Roche, Basel, Switzerland) from sub-confluent cells. Denaturing sample buffer was added, samples were boiled at 95 degrees for 10 minutes, and an equal amount of protein lysate was electrophoresed through NuPAGE™ 4 to 12%, Bis-Tris, 1.5 mm, Mini Protein Gels (Invitrogen, Waltham, MA) then transferred to PVDF membranes. The PVDF membrane was blocked with 5% non-fat milk (Sigma-Aldrich, St. Louis, MO) in 1×TTBS. Primary antibodies were incubated with the transferred PVDF membrane in blocking buffer at 4° C. overnight. Secondary antibodies used included Goat anti-Rabbit IgG (H+L) Secondary Antibody, HRP (Cat #31460, Invitrogen, Waltham, MA), and Goat anti-Mouse IgG (H+L) Secondary Antibody, HRP (Cat #31430, Invitrogen, Waltham, MA). Signal was detected using Pierce™ ECL Western Blotting Substrate (Cat #32106, Thermo Scientific, Waltham, MA, USA) and a Syngene Imaging System (RRID: SCR_015770)."}, "HCT-116 cells": {"tested_on": "HCT-116 cells", "assay": "Microarray gene expression analysis, HCT-116", "description": "A total of 0.5×10^6 tumor cells (HCT-116, HT-29, KM12C) were plated in a 6-well plate and allowed to adhere overnight before 24-hour treatment as indicated. 1×10^6 immune cells (NK92, TALL-104) were plated and treated with elraglusib as indicated for 24 hours. RNA was isolated from cell pellets in batches of 6 using an RNeasy Plus Mini Kit (Cat #74134, Qiagen, Hilden, Germany). Acceptable RNA concentration and quality were verified with Nanodrop and Bioanalyzer measurements. GeneChip™ Human Transcriptome Array 2.0 assays were conducted according to manufacturer instructions in two batches using randomized samples to limit batch effects (Cat #902162, Applied Biosystems, Waltham, MA, USA). Applied Biosystems Transcriptomic Analysis Console (TAC) software (RRID: SCR_016519) was used to calculate fold changes in gene expression relative to the untreated control cells. Values were considered statistically significant for p values <0.05."}, "[1]": {"tested_on": "NK-92 natural killer cells", "assay": "Western blot analysis of NK-92 natural killer cells", "conditions": "through the 72-hour endpoint", "description": "as §1"}, "[2]": {"conditions": "especially at later timepoints (48, 72 hr)"}}}
{"smiles": "Cn1cc(C2=C(c3coc4ccc(F)cc34)C(=O)NC2=O)c2cc3c(cc21)OCO3", "note": "[elraglusib, 3-(5-fluorobenzofuran-3-yl)-4-(5-methyl-5H-[1,3]dioxolo[4,5-f]indol-7-yl)-1H-pyrrole-2,5-dione]", "values": [{"measurement": "NF-κB p65 expression", "setting": "HCT-116 CRC cells; as the 0-72 hour time-course progressed", "value": "decreased expression"}, {"measurement": "PD-L1 expression", "setting": "HCT-116 CRC cells; as the treatment duration increased (0-72 hours)", "value": "increases in PD-L1 expression"}, {"measurement": "Mcl-1 protein expression", "setting": "HCT-116 CRC cells; by the 24-hour timepoint", "value": "marked decreases in protein expression"}, {"measurement": "Bcl-2 protein expression", "setting": "HCT-116 CRC cells; [2]", "value": "decreases in protein expression"}, {"measurement": "Survivin protein expression", "setting": "HCT-116 CRC cells; [2]", "value": "decreases in protein expression"}, {"measurement": "cleaved PARP (cPARP)", "setting": "HCT-116 CRC cells; low dose as in co-culture assays, until the 48-hour timepoint of 72-hour timecourse", "value": "little to no cleaved PARP"}, {"measurement": "CMTM4 gene expression fold change", "setting": "HCT-116 cells; 24 hours vs DMSO", "value": "−1.84", "unit": "FC"}, {"measurement": "NEK2 gene expression fold change", "setting": "HCT-116 cells; 24 hours vs DMSO", "value": "−2.21", "unit": "FC"}, {"measurement": "PPP1R1C gene expression fold change", "setting": "HCT-116 cells; 24 hours vs DMSO", "value": 1.78, "unit": "FC"}, {"measurement": "downregulated genes in VEGFA-VEGFR2 signaling pathway", "setting": "HCT-116 cells; 24 hours vs DMSO", "value": 29}, {"measurement": "differentially expressed genes post-treatment", "setting": "HCT-116 cells; IC-50 concentration (1 μM), 24 hours, FC cutoff >1.5, <−1.5, p<0.05", "value": 340}, {"measurement": "Mcl-1 protein expression", "setting": "[1]", "value": "did not observe a significant decrease"}]}
